{"source": "paper PMC5908784", "about": "“Extracellular loops 2 and 3 of the calcitonin receptor selectively modify agonist binding and efficacy” (Biochemical Pharmacology, 2018)", "assay_in_all_cases": "Homologous whole cell competition binding", "conditions_in_all_cases": "homologous competition of 125I-sCT(8-32), whole cells, mean ± S.E.M., SEM", "key": {"hCTR V375A": {"target": "T1, hCTR V375A (Homo sapiens, UniProt P30988, V375A)", "T1 construct": "c-Myc (N); expressed in transfected cells", "T1 sequence (P30988 25-474 V375A)": "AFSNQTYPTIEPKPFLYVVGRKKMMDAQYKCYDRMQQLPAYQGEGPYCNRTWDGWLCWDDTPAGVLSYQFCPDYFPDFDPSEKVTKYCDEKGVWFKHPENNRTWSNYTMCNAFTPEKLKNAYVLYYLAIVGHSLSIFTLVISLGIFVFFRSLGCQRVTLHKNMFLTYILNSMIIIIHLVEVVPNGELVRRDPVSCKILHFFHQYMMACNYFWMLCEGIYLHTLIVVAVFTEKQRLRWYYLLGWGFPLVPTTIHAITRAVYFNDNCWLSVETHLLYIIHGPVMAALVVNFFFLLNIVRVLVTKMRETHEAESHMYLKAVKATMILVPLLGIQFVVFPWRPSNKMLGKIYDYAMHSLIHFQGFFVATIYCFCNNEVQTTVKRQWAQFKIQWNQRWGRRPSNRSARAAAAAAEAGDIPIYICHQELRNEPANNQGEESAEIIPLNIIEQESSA", "method_in_brief": "(§1)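 Values are pKi, derived from IC50 of unlabelled sCT(8-32) displacing ^125I-sCT(8-32) (25–100 pM) from whole cells after overnight incubation at 4 °C. Specific binding was scaled between tracer-only total and 1 μM cold-peptide background.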"}, "hCTR S292A": {"target": "T2, hCTR S292A (Homo sapiens, UniProt P30988, S292A)", "T2 construct": "expressed in transfected cells", "T2 sequence (P30988 25-474 S292A)": "T1 sequence (P30988 25-474 V375A) with S268A, A351V", "method_in_brief": "as §1"}, "hCTR P363A": {"target": "T3, hCTR P363A (Homo sapiens, UniProt P30988, P363A)", "T3 construct": "expressed in transfected cells", "T3 sequence (P30988 25-474 P363A)": "T1 sequence (P30988 25-474 V375A) with P339A, A351V", "method_in_brief": "as §1"}, "hCTR H296A": {"target": "T4, hCTR H296A (Homo sapiens, UniProt P30988, H296A)", "T4 construct": "c-Myc (N); expressed in transfected cells", "T4 sequence (P30988 25-474 H296A)": "T1 sequence (P30988 25-474 V375A) with H272A, A351V", "method_in_brief": "as §1"}}, "note": "Numbering of substitutions follows the chain as printed. Where no end group is shown, it is not given here.", "data": [{"substance": "VLGKLSQELHKLQTYPRTNTGSGTP-NH2 [sCT(8-32)]", "values": [{"measurement": "Ki", "setting": "hCTR V375A", "value": 0.191, "unit": "nM"}, {"measurement": "Ki", "setting": "hCTR S292A", "value": 0.0631, "unit": "nM"}, {"measurement": "Ki", "setting": "hCTR P363A", "value": 0.355, "unit": "nM"}, {"measurement": "Ki", "setting": "hCTR H296A", "value": 0.269, "unit": "nM"}]}]}
